Source: ChEMBL document CHEMBL3507680, “University of Dundee, Gates Library screen for HepG2 cell viability”

assay: Human HepG2 cell viability assay in 384 well format; assay type: toxicity, cell-based; design: dose 125 nL, time 70.5 hour; concentration not given beside the values; conditions: HepG2 cells, read-out: Inhibition

Row | SMILES | cytotoxicity at 70.5 h
1 | Cn1cc(CN2C[C@@H]3COC[C@@H](C(=O)N4CCCCO4)[C@@H]3C2)cn1 | -1.2%
2 | Cc1ccccc1C(C(=O)NCCS(C)(=O)=O)N(C)C (centres undefined) | -14.5%
3 | CNS(=O)(=O)c1cccc(CNc2nccc(C(F)(F)F)n2)c1 | 53.4%
4 | Cc1cc(CN2C[C@@H]3CCCO[C@@H]3[C@H](Nc3ccccn3)C2)no1 | -8.77%
5 | Cc1nn(C)c2nc(N3CCNC(=O)C3Cc3ccccc3)sc12 (centres undefined) | -2.78%
6 | CSCc1ccc(C(=O)N2CCN(CC(C)O)CC2)cc1 (centres undefined) | -15.3%
7 | Cc1nn(C)c2c(=O)n(C(C)C)c(NCCc3ccccc3)nc12 | 24.5%
8 | CC(C)COc1ccccc1CN(C)C(=O)c1cc(=O)[nH]c(=O)[nH]1 | -8.79%
9 | Cc1nc(C)n(CC2CCCN(CCOc3cccc(C#N)c3)C2)n1 (centres undefined) | 40.4%
10 | O=C(NCC(=O)N1CCCCC1)c1sccc1C1CC1 | 7.84%
11 | CCn1cc(CN2C[C@@H]3CCCN3C[C@H]2CCSC)c(C)n1 | -4.8%
12 | O=C(Cc1cccnc1)N1CCC2(CC1)CCN(C1CCOCC1)CC2 | -5.53%
13 | NC(=O)C(Cc1ccccc1)NS(=O)(=O)Cc1ccccc1Cl (centres undefined) | 7.03%
14 | O=C(N[C@H]1CN(c2nc(CO)cs2)C[C@@H]1C1CC1)C1CCCCC1 | -6.79%
15 | CC(=O)Nc1ccc(CN2CCOC2=O)cc1 | -9.56%
16 | CCCN(C1CCc2ccccc2C1)S(C)(=O)=O (centres undefined) | -2.87%
17 | Cc1cccc(-n2nnnc2C(C)(C)Nc2ccccc2C)c1 | 0.855%
18 | CC(NC(=O)Cc1ccccc1F)C(=O)N1CCS(=O)(=O)CC1 (centres undefined) | -3.35%
19 | CC(=O)N1CCC1c1cc(N2CCSCC2)nc(C)n1 (centres undefined) | -1.98%
20 | Cn1cc(-c2cnc(N3CCOCC3)nc2)cc1C(=O)NC1CC1 | 23.6%
21 | CNC(=O)CN1CCC2(CC1)C[C@@H](O)[C@H](c1ccccc1)NC2=O | -4.55%
22 | CC(=O)N1CCC(c2cncc(Cl)n2)CC1 | 2.82%
23 | NC(=O)C1CNCCN1C(=O)COc1ccccc1 (centres undefined) | -7.46%

Row | SMILES | cytotoxicity at 70.5 h
24 | c1cc(CN2CCC3(CC2)COC(COCC2CC2)C3)cs1 (centres undefined) | -6.27%
25 | O=C(c1csc(-c2ncccn2)n1)N1CCN(C2CCCC2)CC1 | -5.27%
26 | CCc1ccc2c(c1)C(CCNC(=O)CSC(F)(F)F)C(=O)N2 (centres undefined) | -1.42%
27 | Cc1cc(C(=O)N2CCCC2c2noc(C(C)C)n2)c(C)o1 (centres undefined) | -3.94%
28 | CSC(C)C(=O)N(C)CCCc1cc(-c2ccccc2)no1 (centres undefined) | 27.1%
29 | CCN1CCC2(CC1)OCCN2C(=O)c1cc(Cl)c(OC)c(Cl)c1 | 8.67%
30 | Cc1ccc(=O)n(CC2(O)CCN(Cc3cnc(N(C)C)nc3)CC2)n1 | 17.6%
31 | O=C(c1ccncc1)N1CCOC2(COCCN(c3cccnc3)C2)C1 (centres undefined) | -8.51%
32 | COc1ccccc1OCCNc1snc(Cl)c1C#N | -15.5%
33 | Cc1nccn1C1CCCN(C(=O)c2ccc(N(C)C)nc2)C1 (centres undefined) | -7.86%
34 | Cc1ccc(C(C(=O)NC(C)(C)CN2CCCC2)N(C)C)cc1 (centres undefined) | 45%
35 | CCCN1CCC(C(=O)NCCN(CC)c2ccccc2C)CC1 | 17.6%
36 | O=C(Cc1ccc2c(c1)CCC2)NC1CCN(Cc2ccccc2)CC1 | 30.6%
37 | O=C(NCCn1ccnc1)N1CCN(Cc2ccco2)CC1 | -3.81%
38 | O=S(=O)(CC1CC1)c1ncc(CN2CCOCC2)n1CC1CCCO1 (centres undefined) | -0.667%
39 | COc1ccc(N2Cc3nc(=O)[nH]n3C2=O)cc1 | 6.34%
40 | Cc1cc(-c2ccc(C(C)N3CCCCC3)cc2)cnc1N (centres undefined) | -1.07%
41 | CC(C)O[C@@H]1CC[C@H]2[C@H]1OCCN2C(=O)c1nn(C)c2ccccc12 | 1.07%
42 | CN(C)C(C(=O)N1CCC(C#N)CC1)c1ccccc1F (centres undefined) | -5.19%
43 | CCCN(C)CCC(=O)N1CCCC1Cn1cccn1 (centres undefined) | 15.3%
44 | Cc1ccc(Oc2nccnc2C2CCN(C(=O)C(C)(C)N)CC2)cc1 | -6.45%
45 | CC(C)c1ccc(CC2(C)Cc3cc(CC(=O)O)ccc3O2)cc1 (centres undefined) | 17.5%
46 | Cn1ccnc1-c1noc(NCc2ccc(Br)cc2)n1 | -7.73%

Row | SMILES | cytotoxicity at 70.5 h
47 | Cc1ccc(N2Cc3nc(=O)[nH]n3C2=O)cc1 | 6.49%
48 | Cc1oc(NC(=O)C(C)N2CCN(C(C)(C)CO)CC2)c(C#N)c1C (centres undefined) | -4.43%
49 | FC(F)(F)c1cccc(OC2CCN(Cc3c[nH]cn3)CC2)c1 | 45.6%
50 | Cc1cc(CN2CCC(CNC(=O)c3ccc(C#N)cc3)C2)[nH]n1 (centres undefined) | -0.514%
51 | CC1(C)Cc2nc(C(C)(C)C)ncc2C(NC(=O)Cc2nnn[nH]2)C1 (centres undefined) | 52.3%
52 | CCOCC1CN(S(=O)(=O)CC)Cc2nn(C)cc21 (centres undefined) | -8.48%
53 | Cc1cc2c(=O)n3c(nc2s1)CCN(C(=O)c1ccncc1)CC3 | -20%
54 | O=c1n(Cc2cccc(C(F)(F)F)c2)nc2ncccn12 | 24.8%
55 | Cc1cnn(CC2CCCN2CC(=O)Nc2nc(C)cs2)c1 (centres undefined) | 1.41%
56 | O=C1CC2(CCN(Cc3cccnc3)C2)CN1c1ccc2c(c1)OCO2 (centres undefined) | 12.8%
57 | O=C(c1ccc(O)nc1)N1CCC(Nc2cccnn2)CC1 | -8.37%
58 | COc1ccc(OC)c(-n2nnnc2SCC2CCCN(C)C2)c1 (centres undefined) | -3.08%
59 | Cn1c(N2CCOCC2)nc2cc(C(=O)N3CCCOCC3)ccc21 | -12.1%
60 | CN(C)c1ncc(-c2cc(C(=O)NCCO)n(CC3CC3)c2)cn1 | -6%
61 | CC(OCC(F)(F)F)C(=O)N1CCOCC1 (centres undefined) | -99.6%
62 | CCOCC(=O)N1CCC(c2cc3ncccc3c(O)n2)CC1 | -6.58%
63 | Cc1ccc(OCc2occc2C(=O)O)cc1 | -5.9%
64 | O=C1CCCN1Cc1ccc(C(=O)N2CCCC2c2cccs2)cc1 (centres undefined) | -6.75%
65 | Cc1cc(CN2CC[C@H]3OCC[C@@]3(C(=O)NCc3ccco3)C2)no1 | 0.284%
66 | CC(C)CC(=O)N1CC[C@H]2C[C@H](c3nccs3)O[C@@H]2C1 | 2.63%
67 | CC(C#N)(NC(=O)c1ccc(C#N)cc1)C1CC1 (centres undefined) | -0.776%
68 | Cc1occc1C(=O)NCC(=O)NCCOc1cccc(Cl)c1 | -11.3%
69 | Cn1cc(CN2CCO[C@@H]3CN(C4CCCC4)C[C@@H]3C2)cn1 | 1.26%

Row | SMILES | cytotoxicity at 70.5 h
70 | CC(C)COCC(C)NC(=O)NCc1cccc(-n2cncn2)c1 (centres undefined) | -2.93%
71 | CCN1CCN2CCCN(S(=O)(=O)c3ccc(C)cc3C)C2C1=O (centres undefined) | -4.62%
72 | O=C(c1csnn1)N1CCc2ccccc21 | 2.68%
73 | Cc1cc(C)n(CC2CCCCN2CC(=O)NC2CCOCC2)n1 (centres undefined) | 18.3%
74 | CC(Cn1cc(Cl)cn1)C(=O)Nc1ccc(CN2CCCCCC2)cc1 (centres undefined) | 18.9%
75 | COCCN(CCOC)C(=O)c1ccoc1C | -6.19%
76 | COC(=O)CNC(=O)C1CCN(S(C)(=O)=O)CC1 | -9.71%
77 | Cc1cccnc1CN1CCN(c2noc(-c3ccccc3)n2)CC1 | 7.94%
78 | Cc1cc(C)c(CNc2ncnc3ccccc23)c(=O)[nH]1 | -2.78%
79 | CN(Cc1noc2c1CCCC2)C(=O)C1Cc2ccccc2CN1C (centres undefined) | -6.59%
80 | CCN1C(=O)C2(CCOCC2)c2cc(NC(=O)c3csnn3)ccc21 | 8.75%
81 | CC(C)c1nnsc1CNC(=O)C1CCN(C(C)C)CC1 | 1.46%
82 | COCc1ccc(C(=O)N2CCN(CCS(C)(=O)=O)CC2)cc1 | -10.7%
83 | Cc1cc(C2CCCN2Cc2cc(=O)n(C)c(=O)n2C)no1 (centres undefined) | 18.5%
84 | FC(F)(F)c1ccc(-c2cnc(C3CCCN3)cn2)cc1 (centres undefined) | 13.6%
85 | CC(C)C(=O)Nc1cccc(OCC(=O)NCc2ccccc2F)c1 | -5.29%
86 | O=C(CCc1cc(Cl)no1)N1CCN(CCn2cncn2)CC1 | -0.942%
87 | COc1ccc(NC(=O)NC(C)Cn2cccn2)cn1 (centres undefined) | -11.6%
88 | CNc1cncc(C2CCCN2Cc2ccccc2OCC(=O)O)n1 (centres undefined) | -8.8%
89 | CS(=O)(=O)CCN1C[C@H](NC(=O)c2cnc(O)cn2)[C@@H](C2CC2)C1 | 11.1%
90 | CCc1cc(O)nc(C2CCCN2C(=O)c2cccnc2)n1 (centres undefined) | 20.7%
91 | Cc1cc(C)cc(NCCC(=O)NCc2cccnc2N(C)C)c1 | -5.81%
92 | Cn1cc(-c2cnc(N3CCOCC3)nc2)cc1C(=O)NCCC#N | -9.71%

Row | SMILES | cytotoxicity at 70.5 h
93 | COc1ccc(C2(c3nc(-c4cnn(C)c4)no3)CCOCC2)cc1 | -3.48%
94 | Cc1nnc(CCNC(=O)[C@H]2CNC[C@@H](C(=O)N3CCCC3)C2)s1 | -6.7%
95 | CN(CC(C)(C)C)c1ccc(C(=O)NCCCc2ccccn2)cn1 | -8.74%
96 | O=C(NCc1cc[nH]n1)NCC(O)c1ccc(F)cc1F (centres undefined) | -9.36%
97 | CC(C)c1noc(C2CCN(C(=O)c3cccs3)CC2)n1 | -5.14%
98 | Cc1ccc(-c2cn[nH]c2C2CCCN(c3nccc(N)n3)C2)cc1 (centres undefined) | -1.62%
99 | Cc1cn2c(n1)CCC(NC(=O)c1oc(Br)cc1C)C2 (centres undefined) | -11.5%
100 | C[C@@H]1CN(CCOc2ccc(Cl)cc2)CC[C@@]1(O)C1CCOCC1 | 7.29%
101 | COc1ccc(C2CCCCCN2S(=O)(=O)N(C)C)cc1 (centres undefined) | -7.96%
102 | CC(C)NCC1(O)CCCN(CCC2CCCCC2)C1=O (centres undefined) | -7.37%
103 | O=C(NCc1cccnc1N1CCCC(O)C1)c1ccsc1 (centres undefined) | -20.7%
104 | CCC(=O)N1CCCC1c1n[nH]cc1-c1ccccc1F (centres undefined) | -6.39%
105 | O=C([C@H]1C[C@H]2OCC[C@H]2N(CCc2ccccc2)C1)N1CCCO1 | -3.87%
106 | CC(=O)N1CCN(CCOc2ccc(F)cc2)CC(C(N)=O)C1 (centres undefined) | -9.44%
107 | Cc1ncc2c(n1)CCN(Cc1nc(Cc3ccccc3)no1)C2 | 1.16%
108 | CC(=O)N1CCCN(CCCSCc2ccccc2)CC1 | -6.67%
109 | CCc1nc(CCNC(=O)Nc2cccc(C(=O)NC)c2C)cs1 | 9.84%
110 | Cc1csc(N2CCN(CC(=O)Nc3c(C)n[nH]c3C)CC2C)n1 (centres undefined) | 7.7%
111 | Cc1nc(Nc2nncs2)cc(C2CCCN2)n1 (centres undefined) | -4.59%
112 | Cc1cccc(C(C)CNC(=O)N2CCC3(C2)OCCO3)c1 (centres undefined) | 12.8%
113 | O=C(c1csc(-c2ncccn2)n1)N1CCN2CCCCC2C1 (centres undefined) | -5.52%
114 | Cn1c(=O)ccn(CC(=O)N2CCCC(n3cccn3)C2)c1=O (centres undefined) | -9.63%
